Experiments:
[1] = target: TDP-43 peptide (amino acids 307-319) (Homo sapiens, UniProt Q13148); test: TDP-43 thioflavin T assay; type: biochemical; conditions: ThT RFU at 15 hours; 100% = TDP-43 + DMSO
Method: The effect of compounds on fibril formation by TDP-43 peptide (amino acids 307-319) was screened using a thioflavin T (ThT) fluorescence assay in a 96-well plate format. The monomeric form of TDP-43 307-319 was stored in HFIP at −20° C. in 32 μL vials and then thawed on ice. After thawing a stock aliquot on ice, 16 μL of HFIP and 432 μL 100 mM ammonium acetate was added. This mix was pipetted three times. Three such prepared aliquots were combined to create a master mix. 400 μM of ThT stock was prepared by dissolving 31.8 mg ThT in 10 mL Milli-Q water to make […] stock. The 10 mM ThT stock was then diluted to 400 μM with Milli-Q water and stored at −20° C. until use. 20 μL aliquots of compounds were used as initial starting material. 98 μL of master mix was then added to each well of 96-well plate, and then 2 μL of compounds was added to each well testing a compound. The plate was spun at 4700×rpm to remove bubbles at 4° C., and then the plate measurements were collected. ThT fluorescence was measured through the bottom of the plate using 440- and 480-nm excitation and emission filters for 15 hours at 0.5-hour intervals. Each well was scanned at 5 points with a 1.25 mm distance between points. The relative fluorescence unit (RFU) at 15 hours was used to rank the percent of aggregation for all tested compounds.

toxic tau oligomers = test: Neuronal cell toxicity assay (MTT), tau oligomers; type: cell-based; conditions: primary rat neurons, 100% = cells without tau oligomers, 0% = tau oligomers and DMSO
Method: (§1) Primary rat cortical and striatal neurons were prepared from foetuses' brain as previously described (Garcia et al., Diabetes, Obesity & Metabolism 2010, 12, 403-413; Roby et al., Food chemistry 2015, 171, 397-404; Colin et al., Biochimie 2016, 130, 178-187). Briefly, the embryos were extracted, brains were collected and dissected using a binocular magnifier. Embryonic cortical/striatal tissues were dissociated by a combination of enzymatic digestion and mechanical dissociation. The relative number of live cells in cell suspension was evaluated for each cortical and striatal neurons using Thoma cell counting chamber and Axio Scope A1 microscope (Carl Zeiss, Oberkochen, Germany). Dissociated neurons were plated (80,000 cells/well) in 48-well plates pre-coated with 15 μg/mL Poly-ornithine (Sigma), 1 μg/ml Laminin (Sigma). Cells were cultured in Neurobasal medium (Invitrogen, Paris, France) serum free of and supplemented with 2% (v/v) of B-27 Supplement (Invitrogen). […]
(§2) To induce neuronal toxicity, neurotoxin (oligomeric forms of Aβ, Tau and alpha-synuclein at 0.1-5 μM) were used. […] Cell viability was evaluated by a 3-(4,5-dimethylthiazol-2-yl)-2,5-diphenyl-2H-tetrazolium bromide (MTT) assay at 24-72 h post neurotoxin challenge. […] After complete solubilization of formazan, absorbance was recorded at 500 nm with a spectrophotometer (SpectraMax® i3x, Molecular Devices, San José, USA).

alpha-synuclein = target: T1, alpha-synuclein (Homo sapiens, UniProt P37840); test: Alpha-synuclein thioflavin T assay; type: biochemical; conditions: 250 μM compound on pre-formed aggregates of 50 μM alpha-synuclein, 24 hours; 100% = alpha synuclein + DMSO
T1 construct: purchased Proteos RP-003
Method: Recombinant alpha-synuclein monomeric protein was procured from Proteos (catalog no. RP-003, 10 mg/ml or 700 μM concentration). Prior to aggregation, the protein was centrifuged at 10,000 rpm for 5 minutes to remove any pre-existing aggregates. The stock solution was then diluted to 50 μM concentration in filtered 1×PBS and allowed to aggregate with continuous shaking at 1000 rpm on a thermomixer for 96 hours at 37° C. After 96 hours, the ThT fluorescence was checked for the sample to confirm aggregate formation using ThT, a well-known amyloid marker dye. The ThT active aggregates were then used for high-throughput small molecule inhibitor screening. For screening small molecule disaggregators, 10 mM DMSO stock solutions of small molecules were diluted to 250 μM in the reaction mix containing 20 μM ThT and aggregates formed by 50 μM alpha-synuclein. As a positive/vehicle control, 100% DMSO stock was diluted to 2.5% to match the DMSO in the small molecule conditions. ThT fluorescence assay was performed for 24 hours with 3 replicates per sample in a 384 well plate (Corning low volume black/clear flat bottom) on a microplate reader (Molecular Devices SpectraMax iD5 or BioTek Agilent Synergy Neo2) using excitation wavelength of 440 nm and emission wavelength of 490 nm. The temperature was maintained at 37° C. and the plate was continuously shaken throughout the measurement. All data were plotted and analyzed in GraphPad Prism.

[2] = target: toxic alpha-synuclein oligomers (Homo sapiens, UniProt P37840); test: Neuronal cell toxicity assay (MTT), alpha-synuclein oligomers; type: cell-based; conditions: 10 μM compound; primary rat neurons; 100% = cells without alpha-synuclein oligomers, 0% = oligomers and DMSO
Method: as §1, §2

[3] = target: T2, amyloid beta peptide 42 (Aβ42) protein aggregates (Homo sapiens, UniProt P05067); test: Atomic force microscopy (AFM) of amyloid beta peptide protein aggregation; type: biochemical; conditions: pre-incubated 10 μM Aβ42, 1:1 compound:Aβ42 ratio, 60 minutes after compound addition
T2 construct: amyloid beta peptide 42 (Aβ42) protein aggregates
Method: Atomic force microscopy (AFM) was utilized to study the effect of compound 1 on the formation of larger scale amyloid beta peptide 42 (Aβ42) protein aggregates and to determine the effect on pre-formed aggregates and fibrils. Amyloid beta peptide 42 protein aggregates are a major component of the amyloid plaques found in the brains of people with Alzheimer's disease. A 50 μL aliquot of 10 μM Aβ42 solution in 10 mM ammonium acetate was removed and drop-cast onto a mica disc, dried at ambient conditions in a desiccator, and imaged. It took approximately 5 min to prepare the peptide and for the disc to dry, making it the earliest time Aβ42 aggregation can be observed. After 5 min incubation, large globular aggregates formed but few fibrils were observed (FIG. 1A). After 60 min, there was a clear trend toward higher fibril content and larger oligomers. Thus, FIG. 1A represents a control, showing Aβ42 aggregation without the addition of any compound causing Aβ42 aggregation disruption.
Compound 1 was added to the same solution of pre-incubated Aβ42 in a 1:1 compound:Aβ42 ratio. The AFM image shown in FIG. 1B was taken at 60 minutes after compound 1 addition.

T2 sequence (P05067 672-713 limits assumed): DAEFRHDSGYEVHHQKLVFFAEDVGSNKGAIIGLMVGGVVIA

% aggregation TDP-43 ThT at 50 μM TDP-43 [1] [%] | % alpha synuclein aggregation as measured on ThT (alpha-synuclein) [%] | Aβ42 protein aggregation (AFM image, FIG. 1B) [3] | Structure (SMILES) | % rescue at 10 μM compound from toxic tau oligomers (toxic tau oligomers) [%] | % rescue at 10 μM comopund from toxic alpha-synuclein oligomers [2] [%]
80.7 | 95.6 |  | CC(=O)Nc1ccc2c(c1)CCN(CCc1ccc(F)c(Cl)c1)C2 [Compound 2] | 33.7 | 
77.4 | 77.8 | dramatic reduction | CC(=O)Nc1ccc2c(c1)CCN(CCc1cccc(Cl)c1)C2 [Compound 1] |  | 24

Reference: patent US20260242340A1, “COMPOUNDS AND METHODS FOR TREATING PROTEIN AGGREGATION DISEASES” (ACELOT, INC., priority 2023, published 2026)
